Results as given in patent US12103951B2, “Use of CGRP receptor antagonists in neuroprotection and neurological disorders” (priority 2016, dated 2024).
Entries after “also recorded” stand apart in the source; their conditions may differ.

Test system: C-nociceptors
Test: Spontaneous activity in C-nociceptors, rat crush-induced sciatic neuropathy (microneurography)
Conditions: 25 μg/Kg i.p.; for spontaneous activity in C-fibers (action potentials recorded in the sciatic nerve): after administration, FIG. 1
Protocol: To investigate the effects of a CGRP receptor antagonist on pathological spontaneous activity in C-nociceptors the following experiments were performed on Sprague-Dawly rats. Crush-inducing sciatic neuropathy was produced in 12 male Sprague-Dawley rats. Spontaneous activity in injured C-nociceptors was then detected with microneurography and the response to CGRP receptor antagonist was assessed under unblind conditions. This study aimed to assess the effect of the CGRP receptor antagonist, on electrophysiological measures of spontaneous activity in subpopulations of injured C-nociceptors in a model of neuropathic pain, and to investigate the effects of the CGRP receptor antagonist on pathological spontaneous activity in peripheral C-nociceptors.
All surgical procedures were performed under general anesthesia (ketamine 90 mg/kg+xylazine 10 mg/kg i.p. (intraperitoneal)). The sciatic nerve was exposed at mid-thigh level. A standardized injury was produced by crushing the nerve three times in succession with a very fine point forcep at a constant point, 90 mm from the tip of the third digit. The wound was then sutured by layers and disinfected with povidone iodine. The animals received an analgesic subcutaneous (s.c). dose of buprenorphine and were maintained in a warm environment until full recovery from the anesthetic, and were allowed to recover from the nerve injury for a minimum of 70 days.
CGRP receptor antagonist (SEQ ID NO: 1) was dissolved according to manufacturer's instructions in saline solution, at a final concentration of 25 μg/Kg. Volumes of the intraperitoneal (i.p.) injected bolus ranged from 0.48 to 0.58 ml.
Animals weighing 478±36 g (mean±SD) on the day of the recording were anesthetized with ketamine (90 mg/Kg) and xylazine (10 mg/Kg) injected i.p (intraperitoneal). Repeated administrations of one-half of the initial dose were performed as required to maintain the level of anesthesia, usually every hour.
Recordings of the sciatic nerve electrical activity were obtained inserting a tungsten microelectrode (FHC, Bowdoinham, ME, USA, nominal impedance 50-100KΩ, shaft Ø 175 μm (Ø=diameter)) into the sciatic nerve trunk with the aid of a micromanipulator. The recording electrode was carefully advanced into the nerve with the micromanipulator until characteristic neural audio signal could be heard. The method follows the same principles of the microneurographic technique employed in human patients.
The neural signals were first amplified with an isolated, high input impedance amplifier, band-pass filtered (maximum range 50-5000 Hz) and passed through a noise eliminator. The signal was then fed to an AM10 audio-monitor with noise clipper (Grass Technologies, Warwick, RI, USA) and to computers running separate software for collecting spontaneous and electrically evoked activity. Electrical stimuli were delivered to the cutaneous receptive field of the units by means of a constant current stimulator (DS7A, Digitimer, Welwyn Garden City, Hertfordshire, UK).
Electrical stimuli were triggered and the responses to electrical stimulation recorded and analyzed with a PC and PCI-6221M data acquisition board (National Instruments, […], USA) running QTRAC software (©Institute of Neurology, London, UK). Spontaneous activity was digitized at 20 kHz and recorded continuously on one of the computers running LabChart software (PowerLab Systems, ADInstruments Ltd., Bella Vista, New South Wales, Australia). Analysis was performed with software written by Neuroscience Technologies, Science Park of Barcelona, Spain, to detect and quantify spontaneous activity.
Trigger pulses were delivered to the stimulator at different frequencies necessary to induce ADS of conduction velocity of the recorded C-fibers. The digitized responses were stored on computer as raw data for off-line analysis.

[1] = 10 min before vs 10 min after administration, paired t-test, listed as CGRP receptor antagonist

NH2-Ala-Cys-Asp-Thr-Ala-Ala-Cys-Val-Leu-Gly-Arg-Leu-Ser-Gln-Glu-Leu-His-Arg-Leu-Gln-Thr-Tyr-Pro-Arg-Thr-Asn-Val-Gly-Ser-Lys-Ala-Phe-NH2 (H-ACDTAACVLGRLSQELHRLQTYPRTNVGSKAF-NH2; ends and bridges not checked) [SEQ ID NO: 1]
SLI/10 min (Significant Latency Increase) [1]: did not reveal a statistically significant effect; also recorded: No significant differences were observed
TI (%) (Total Increase) [1]: did not reveal a statistically significant effect; also recorded: No significant differences were observed
spontaneous activity in C-fibers (action potentials recorded in the sciatic nerve) (rat crush sciatic neuropathy): preventing further spontaneous activity in the C-fibers
spontaneous activity in C-fibers (action potentials recorded in the sciatic nerve) (rat crush sciatic neuropathy, listed as CGRP receptor antagonist): virtually no excitation observed
spontaneous activity at long intervals after the administration (rat crush sciatic neuropathy, up to 90 min): less spontaneous activity
Morbidity and mortality (rats, whole procedure): in good condition during the whole procedure
